Source: ChEMBL document CHEMBL1201862, “PubChem BioAssay data set” (2004)
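Grown in 96-well plates, cells were treated for 48 hours with each compound at five concentrations. Insufficient inhibition: endpoint recorded as highest concentration tested. GI50 = concentration required for 50% inhibition of growth.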 Activity calls are given as the source filed them. Cut-off read from the data, not from the text of the source: active = GI50 up to about 1.1 µM and inactive = higher.

What was measured:
Experiment in all cases: NCI-60 cell line screen, 48 h
[1] = test system: SK-MEL-5
[2] = test system: SK-MEL-2
[3] = test system: A498
[4] = test system: SK-OV-3
[5] = test system: SNB-75
[6] = test system: NCI-H522
[7] = test system: RPMI-8226
[8] = test system: EKVX
[9] = test system: OVCAR-8
[10] = test system: ACHN
[11] = test system: SW-620
[12] = test system: 786-0
[13] = test system: SN12C
[14] = test system: MOLT-4
[15] = test system: M14
[16] = test system: COLO 205
[17] = test system: KM-20L2
[18] = test system: DMS-114
[19] = test system: LXFL 529
[20] = test system: UO-31
[21] = test system: SK-MEL-28
[22] = test system: Malme-3M
[23] = test system: A549
[24] = test system: NCI-H23
[25] = test system: HOP-62
[26] = test system: TK-10
[27] = test system: NCI-H226
[28] = test system: UACC-62
[29] = test system: HCC 2998
[30] = test system: CCRF-CEM
[31] = test system: UACC-257
[32] = test system: OVCAR-5
[33] = test system: CAKI-1
[34] = test system: HOP-92
[35] = test system: IGROV-1
[36] = test system: RXF 393
[37] = test system: HT-29
[38] = test system: K562
[39] = test system: HCT-116
[40] = test system: NCI-H460
[41] = test system: SNB-19
[42] = test system: SF-268
[43] = test system: LOX IMVI
[44] = test system: XF498
[45] = test system: OVCAR-3
[46] = test system: OVCAR-4
[47] = test system: KM12
[48] = test system: SNB-78
[49] = test system: DMS-273
[50] = test system: SF-539
[51] = test system: SF-295
[52] = test system: U-251
[53] = test system: HCT-15
[54] = test system: DLD-1
[55] = test system: M19-MEL
[56] = test system: HL-60
[57] = test system: HOP-18

## CNC(=O)N(CCCC(NC(C)=O)C(=O)NCc1ccccc1)Cc1ccccc1 (stereo unspecified)
[1]
  GI50: > 100 µM (inactive)
[2]
  GI50: > 100 µM (inactive)
[3]
  GI50: > 100 µM (inactive)
[4]
  GI50: > 100 µM (inactive)
[5]
  GI50: 28.6 µM (inactive)
[6]
  GI50: > 100 µM (inactive)
[7]
  GI50: > 100 µM (inactive)
[8]
  GI50: > 100 µM (inactive)
[9]
  GI50: > 100 µM (inactive)
[10]
  GI50: > 100 µM (inactive)
[11]
  GI50: > 100 µM (inactive)
[12]
  GI50: > 100 µM (inactive)
[13]
  GI50: > 100 µM (inactive)
[14]
  GI50: > 100 µM (inactive)
[15]
  GI50: > 100 µM (inactive)
[16]
  GI50: > 100 µM (inactive)
[17]
  GI50: > 100 µM (inactive)
[18]
  GI50: > 100 µM (inactive)
[19]
  GI50: > 100 µM (inactive)
[20]
  GI50: > 100 µM (inactive)
[21]
  GI50: > 100 µM (inactive)
[22]
  GI50: > 100 µM (inactive)
[23]
  GI50: > 100 µM (inactive)
[24]
  GI50: > 100 µM (inactive)
[25]
  GI50: > 100 µM (inactive)
[26]
  GI50: > 100 µM (inactive)
[27]
  GI50: > 100 µM (inactive)
[28]
  GI50: > 100 µM (inactive)
[29]
  GI50: > 100 µM (inactive)
[30]
  GI50: > 100 µM (inactive)
[31]
  GI50: > 100 µM (inactive)
[32]
  GI50: > 100 µM (inactive)
[33]
  GI50: > 100 µM (inactive)
[34]
  GI50: > 100 µM (inactive)
[35]
  GI50: > 100 µM (inactive)
[36]
  GI50: > 100 µM (inactive)
[37]
  GI50: > 100 µM (inactive)
[38]
  GI50: > 100 µM (inactive)
[39]
  GI50: > 100 µM (inactive)
[40]
  GI50: > 100 µM (inactive)
[41]
  GI50: > 100 µM (inactive)
[42]
  GI50: > 100 µM (inactive)
[43]
  GI50: > 100 µM (inactive)
[44]
  GI50: > 100 µM (inactive)
[45]
  GI50: > 100 µM (inactive)
[46]
  GI50: > 100 µM (inactive)
[47]
  GI50: > 100 µM (inactive)
[48]
  GI50: > 100 µM (inactive)
[49]
  GI50: > 100 µM (inactive)
[50]
  GI50: > 100 µM (inactive)
[51]
  GI50: > 100 µM (inactive)
[52]
  GI50: > 100 µM (inactive)
[53]
  GI50: > 100 µM
[54]
  GI50: > 100 µM (inactive)
[55]
  GI50: > 100 µM (inactive)

## COc1cc([C@@H]2c3cc4c(cc3[C@@H](NC(=O)c3ccccc3)C3COC(=O)[C@@H]32)OCO4)cc(OC)c1O (stereo partly specified)
[1]
  GI50: 2.31 µM (inactive)
[2]
  GI50: 20.3 µM (inactive)
[3]
  GI50: 6.1 µM (inactive)
[4]
  GI50: 6.62 µM (inactive)
[5]
  GI50: 5.43 µM (inactive)
[6]
  GI50: 0.423 µM (active)
[7]
  GI50: 2.61 µM (inactive)
[8]
  GI50: 21.4 µM (inactive)
[9]
  GI50: 8.99 µM (inactive)
[10]
  GI50: 1.45 µM (inactive)
[11]
  GI50: 10.3 µM (inactive)
[12]
  GI50: 4.26 µM (inactive)
[13]
  GI50: 2.55 µM (inactive)
[14]
  GI50: 0.491 µM (active)
[15]
  GI50: 5.57 µM (inactive)
[16]
  GI50: 17.5 µM (inactive)
[17]
  GI50: 2.71 µM (inactive)
[18]
  GI50: 2.61 µM (inactive)
[19]
  GI50: 12.1 µM (inactive)
[20]
  GI50: 4.89 µM (inactive)
[21]
  GI50: 13.8 µM (inactive)
[22]
  GI50: 3.61 µM (inactive)
[23]
  GI50: 1.04 µM (active)
[24]
  GI50: 2.77 µM (inactive)
[25]
  GI50: 2.54 µM (inactive)
[26]
  GI50: 32.4 µM (inactive)
[27]
  GI50: 1.53 µM (inactive)
[28]
  GI50: 0.568 µM (active)
[29]
  GI50: 14 µM (inactive)
[30]
  GI50: 1.57 µM (inactive)
[31]
  GI50: 2.99 µM (inactive)
[32]
  GI50: 49.9 µM (inactive)
[33]
  GI50: 11.3 µM (inactive)
[34]
  GI50: 8.39 µM (inactive)
[35]
  GI50: 1.65 µM (inactive)
[36]
  GI50: 7.31 µM (inactive)
[56]
  GI50: 1.87 µM (inactive)
[37]
  GI50: 3.18 µM (inactive)
[57]
  GI50: > 100 µM (inactive)
[38]
  GI50: 3.27 µM (inactive)
[39]
  GI50: 5.42 µM (inactive)
[40]
  GI50: 0.361 µM (active)
[41]
  GI50: 19.4 µM (inactive)
[42]
  GI50: 4.55 µM (inactive)
[43]
  GI50: 2.52 µM (inactive)
[45]
  GI50: 20.8 µM (inactive)
[46]
  GI50: 39.7 µM (inactive)
[47]
  GI50: 7.28 µM (inactive)
[48]
  GI50: 41.2 µM (inactive)
[49]
  GI50: 1.52 µM (inactive)
[50]
  GI50: 6.14 µM (inactive)
[51]
  GI50: 3.51 µM (inactive)
[52]
  GI50: 1.32 µM (inactive)
[53]
  GI50: 9.84 µM
[54]
  GI50: 14.9 µM (inactive)
[55]
  GI50: 4.82 µM (inactive)
